Measured values taken from patent US5695970A, “Glucan lyase producing 1,5-anhydrofructose” (priority 1992, dated 1997).
Where two headings read alike, the source gives them in different places.

Columns and labels:
[1] = format: physicochemical; conditions: for Absorbance at 546 nm: room temperature; for Absorbance (546 nm): Table VII, 10 min after DNS reagent
Method: It can be seen that the reaction was completed in less than 10 minutes. […] (1990) Methods in Plant Biochemistry (Dey, P. M. and Harborne, J. B., eds.), Vol.3, pp. 103-127, Academic Press, London). |Time-course reaction of AF with DNS reagent at room |temperature. The absorbance at 546 nm as a measure of reaction |rate was recorded soon after the addition of 300 μl DNS reagent |to 300 μl sample solution containing varying amount of AF. […] The reaction of AF with 3,5-dinitrosalicylic acid reagent occurred at room temperature and was completed within 10 min (Table VI). A linear relationship exists for AF between the absorbance of 0.1-2.3 at 546 nm and AF content, ranging from 0.3-2.7 μmol or 50-440 μg i 300 μl sample (Table VII). […] This method is applicable to both the smallest substrate as maltose and the largest substrate as amylopectin. |The correlation between AF content and absorbance. |Absorbance was measured 10 min after the addition of |300 μl DNS reagent to 300 μl sample solution |containing varying amount of AF as indicated.

α-1,4-glucan lyase = test: Inhibition studies of α-1,4-glucan lyase activity; format: biochemical, Gracilariopsis lemaneiformis; conditions: products accumulating during the enzyme reaction
Method: The reaction mixture for the assay of α-1,4-glucan lyase was composed of 240 μl 62.5 mM Mops-NaOH containing 6 mg soluble starch (pH 6.2), the enzyme preparation and distilled water to a final volume of 300 μl. The reaction was carried out at 30° C. for 10-30 min. Liberated 1,5-anhydrofructose was determined by monitoring the absorbance at 546 nm after the addition of 3,5-dinitrosalicylic acid reagent. Soluble starch in the reaction mixture may be replaced by other substrates and the final substrate concentration may be varied as indicated in the text. The reaction time and enzyme concentration used in enzyme activity assay have been chosen to ensure the linearity of the reaction rate. One unit of α-1,4-glucan lyase activity is defined as the amount of enzyme which liberates 1μmol of 1,5-anhydrofructose min^-1 under the conditions described above.

[2] = test system: hexokinase and glucose-6-phosphate dehydrogenase pathway; test: Metabolization of AF by hexokinase and glucose-6-phosphate dehydrogenase; format: biochemical
glucose peroxidase = test: Metabolization of AF by glucose peroxidase; format: biochemical

For `O=C1CO[C@H](CO)[C@@H](O)[C@@H]1O` [AF, 1,5-anhydrofructose], which “reducing power (in words)” value ([1]; 3,5-dinitrosalicylic acid reagent at room temperature) is on record?
Its value is “high reducing power”.

And the “Absorbance at 546 nm” value ([1]; AF content 0.55 μmol, reaction time 0 min)?
The value was 0.

And the “Absorbance at 546 nm” value ([1]; AF content 0.55 μmol, reaction time 1 min)?
The value was 0.037.

What about the “Absorbance at 546 nm” value ([1]; AF content 0.55 μmol, reaction time 2 min) of the same compound?
The value was 0.180.

What about the “Absorbance at 546 nm” value ([1]; AF content 0.55 μmol, reaction time 3 min) of the same compound?
Its value is 0.274.

And the “Absorbance at 546 nm” value ([1]; AF content 0.55 μmol, reaction time 4 min)?
Its value is 0.341.

What about the “Absorbance at 546 nm” value ([1]; AF content 0.55 μmol, reaction time 5 min) of the same compound?
Its value is 0.386.

And the “Absorbance at 546 nm” value ([1]; AF content 0.55 μmol, reaction time 6 min)?
The value was 0.414.

And the “Absorbance at 546 nm” value ([1]; AF content 0.55 μmol, reaction time 7 min)?
The value was 0.431.

What about the “Absorbance at 546 nm” value ([1]; AF content 0.55 μmol, reaction time 8 min) of the same compound?
Its value is 0.440.

And the “Absorbance at 546 nm” value ([1]; AF content 0.55 μmol, reaction time 9 min)?
The value was 0.444.

What about the “Absorbance at 546 nm” value ([1]; AF content 0.55 μmol, reaction time 10 min) of the same compound?
Its value is 0.446.

What about the “Absorbance at 546 nm” value ([1]; AF content 1.26 μmol, reaction time 0 min) of the same compound?
Its value is 0.

What about the “Absorbance at 546 nm” value ([1]; AF content 1.26 μmol, reaction time 1 min) of the same compound?
Its value is 0.218.

And the “Absorbance at 546 nm” value ([1]; AF content 1.26 μmol, reaction time 2 min)?
Its value is 0.468.

And the “Absorbance at 546 nm” value ([1]; AF content 1.26 μmol, reaction time 3 min)?
The value was 0.660.

And the “Absorbance at 546 nm” value ([1]; AF content 1.26 μmol, reaction time 4 min)?
Its value is 0.796.

What about the “Absorbance at 546 nm” value ([1]; AF content 1.26 μmol, reaction time 5 min) of the same compound?
The value was 0.888.

What about the “Absorbance at 546 nm” value ([1]; AF content 1.26 μmol, reaction time 6 min) of the same compound?
The value was 0.948.

And the “Absorbance at 546 nm” value ([1]; AF content 1.26 μmol, reaction time 7 min)?
Its value is 0.985.

What about the “Absorbance at 546 nm” value ([1]; AF content 1.26 μmol, reaction time 8 min) of the same compound?
Its value is 1.007.

And the “Absorbance at 546 nm” value ([1]; AF content 1.26 μmol, reaction time 9 min)?
Its value is 1.024.

What about the “Absorbance at 546 nm” value ([1]; AF content 1.26 μmol, reaction time 10 min) of the same compound?
The value was 1.029.

And the “Absorbance at 546 nm” value ([1]; AF content 2.36 μmol, reaction time 0 min)?
Its value is 0.

And the “Absorbance at 546 nm” value ([1]; AF content 2.36 μmol, reaction time 1 min)?
The value was 0.476.

And the “Absorbance at 546 nm” value ([1]; AF content 2.36 μmol, reaction time 2 min)?
The value was 0.930.

And the “Absorbance at 546 nm” value ([1]; AF content 2.36 μmol, reaction time 3 min)?
Its value is 1.271.

What about the “Absorbance at 546 nm” value ([1]; AF content 2.36 μmol, reaction time 4 min) of the same compound?
The value was 1.510.

What about the “Absorbance at 546 nm” value ([1]; AF content 2.36 μmol, reaction time 5 min) of the same compound?
Its value is 1.671.

And the “Absorbance at 546 nm” value ([1]; AF content 2.36 μmol, reaction time 6 min)?
The value was 1.775.

What about the “Absorbance at 546 nm” value ([1]; AF content 2.36 μmol, reaction time 7 min) of the same compound?
The value was 1.840.

What about the “Absorbance at 546 nm” value ([1]; AF content 2.36 μmol, reaction time 8 min) of the same compound?
Its value is 1.880.

What about the “Absorbance at 546 nm” value ([1]; AF content 2.36 μmol, reaction time 9 min) of the same compound?
Its value is 1.905.

And the “Absorbance at 546 nm” value ([1]; AF content 2.36 μmol, reaction time 10 min)?
Its value is 1.920.

What about the “Absorbance at 546 nm” value ([1]; AF content 2.84 μmol, reaction time 0 min) of the same compound?
The value was 0.

What about the “Absorbance at 546 nm” value ([1]; AF content 2.84 μmol, reaction time 1 min) of the same compound?
Its value is 0.559.

And the “Absorbance at 546 nm” value ([1]; AF content 2.84 μmol, reaction time 2 min)?
Its value is 1.222.

And the “Absorbance at 546 nm” value ([1]; AF content 2.84 μmol, reaction time 3 min)?
Its value is 1.628.

And the “Absorbance at 546 nm” value ([1]; AF content 2.84 μmol, reaction time 4 min)?
Its value is 1.898.

And the “Absorbance at 546 nm” value ([1]; AF content 2.84 μmol, reaction time 5 min)?
The value was 2.070.

What about the “Absorbance at 546 nm” value ([1]; AF content 2.84 μmol, reaction time 6 min) of the same compound?
The value was 2.176.

What about the “Absorbance at 546 nm” value ([1]; AF content 2.84 μmol, reaction time 7 min) of the same compound?
The value was 2.239.

And the “Absorbance at 546 nm” value ([1]; AF content 2.84 μmol, reaction time 8 min)?
The value was 2.278.

What about the “Absorbance at 546 nm” value ([1]; AF content 2.84 μmol, reaction time 9 min) of the same compound?
The value was 2.300.

And the “Absorbance at 546 nm” value ([1]; AF content 2.84 μmol, reaction time 10 min)?
Its value is 2.311.

What about the “Absorbance (546 nm)” value ([1]; AF content 0.264 μmol) of the same compound?
Its value is 0.113.

What about the “Absorbance (546 nm)” value ([1]; AF content 0.340 μmol) of the same compound?
Its value is 0.154.

What about the “Absorbance (546 nm)” value ([1]; AF content 0.360 μmol) of the same compound?
Its value is 0.166.

And the “Absorbance (546 nm)” value ([1]; AF content 0.526 μmol)?
The value was 0.305.

And the “Absorbance (546 nm)” value ([1]; AF content 0.540 μmol)?
The value was 0.237.

And the “Absorbance (546 nm)” value ([1]; AF content 0.636 μmol)?
Its value is 0.355.

What about the “Absorbance (546 nm)” value ([1]; AF content 0.655 μmol) of the same compound?
Its value is 0.514.

What about the “Absorbance (546 nm)” value ([1]; AF content 0.702 μmol) of the same compound?
The value was 0.584.

And the “Absorbance (546 nm)” value ([1]; AF content 0.929 μmol)?
Its value is 0.682.

And the “Absorbance (546 nm)” value ([1]; AF content 1.089 μmol)?
The value was 0.710.

What about the “Absorbance (546 nm)” value ([1]; AF content 1.148 μmol) of the same compound?
Its value is 0.880.

What about the “Absorbance (546 nm)” value ([1]; AF content 1.181 μmol) of the same compound?
The value was 0.880.

And the “Absorbance (546 nm)” value ([1]; AF content 1.241 μmol)?
The value was 1.099.

What about the “Absorbance (546 nm)” value ([1]; AF content 1.514 μmol) of the same compound?
The value was 1.415.

And the “Absorbance (546 nm)” value ([1]; AF content 1.529 μmol)?
The value was 1.260.

And the “Absorbance (546 nm)” value ([1]; AF content 1.588 μmol)?
Its value is 1.516.

What about the “Absorbance (546 nm)” value ([1]; AF content 1.627 μmol) of the same compound?
Its value is 1.302.

And the “Absorbance (546 nm)” value ([1]; AF content 1.712 μmol)?
Its value is 1.409.

What about the “Absorbance (546 nm)” value ([1]; AF content 2.031 μmol) of the same compound?
Its value is 1.830.

And the “Absorbance (546 nm)” value ([1]; AF content 2.052 μmol)?
The value was 1.703.

And the “Absorbance (546 nm)” value ([1]; AF content 2.183 μmol)?
The value was 1.806.

What about the “Absorbance (546 nm)” value ([1]; AF content 2.241 μmol) of the same compound?
The value was 1.787.

And the “Absorbance (546 nm)” value ([1]; AF content 2.362 μmol)?
Its value is 1.875.

And the “Absorbance (546 nm)” value ([1]; AF content 2.683 μmol)?
Its value is 2.266.

What about the “Absorbance (546 nm)” value ([1]; AF content 3.221 μmol) of the same compound?
The value was 2.590.

And the “product inhibition: effect on enzyme reaction rate” value (α-1,4-glucan lyase)?
The value was “negligible effect”.

What about the “metabolization through hexokinase and glucose-6-phosphate dehydrogenase pathway” value [2] of the same compound?
The value was “can not be metabolized”.

And the “metabolization by glucose peroxidase” value (glucose peroxidase)?
Its value is “can not be metabolized”.
